Assays:
Assay in all cases: relative viability (nuclei count vs DMSO), 5 days (fraction); higher = more cells survive
BMX-IN-1 + Alpelisib = compound: C=CC(=O)Nc1cc(-n2c(=O)ccc3cnc4ccc(-c5ccc(NS(C)(=O)=O)cc5)cc4c32)ccc1C [BMX-IN-1] + Cc1nc(NC(=O)N2CCC[C@H]2C(N)=O)sc1-c1ccnc(C(C)(C)C(F)(F)F)c1 [Alpelisib] (partner 2 µM)
Method in brief: (§1)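 One day after seeding in 1536-well plates, lung cancer cell lines were dosed by pin tool. Dosing was either single-drug or a fixed anchor-drug dose plus five library-drug doses (not always all listed) in √10 steps. After 5 days, nuclei were stained in one fix-and-stain step and counted on 4× images, and relative viability is the nuclei count of treated wells over that of vehicle wells, given as the median of duplicate plates.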

PAC-1 + Tozasertib = compound: C=CCc1cccc(/C=N/NC(=O)CN2CCN(Cc3ccccc3)CC2)c1O [PAC-1] + Cc1cc(Nc2cc(N3CCN(C)CC3)nc(Sc3ccc(NC(=O)C4CC4)cc3)n2)n[nH]1 [Tozasertib] (partner 0.1 µM)
Method in brief: as §1

PAC-1 + Dasatinib = compound: C=CCc1cccc(/C=N/NC(=O)CN2CCN(Cc3ccccc3)CC2)c1O [PAC-1] + Cc1nc(Nc2ncc(C(=O)Nc3c(C)cccc3Cl)s2)cc(N2CCN(CCO)CC2)n1 [Dasatinib] (partner 0.075 µM)
Method in brief: as §1

BMX-IN-1 + Pemetrexed = compound: C=CC(=O)Nc1cc(-n2c(=O)ccc3cnc4ccc(-c5ccc(NS(C)(=O)=O)cc5)cc4c32)ccc1C [BMX-IN-1] + Nc1nc2[nH]cc(CCc3ccc(C(=O)N[C@@H](CCC(=O)O)C(=O)O)cc3)c2c(=O)[nH]1 [Pemetrexed] (partner 0.2 µM)
Method in brief: as §1

BMX-IN-1 + Vorinostat = compound: C=CC(=O)Nc1cc(-n2c(=O)ccc3cnc4ccc(-c5ccc(NS(C)(=O)=O)cc5)cc4c32)ccc1C [BMX-IN-1] + O=C(CCCCCCC(=O)Nc1ccccc1)NO [Vorinostat] (partner 1 µM)
Method in brief: as §1

Cell Line	relative viability (BMX-IN-1 + Alpelisib; first compound 0.02 µM)	relative viability (BMX-IN-1 + Alpelisib; first compound 0.2 µM)	relative viability (BMX-IN-1 + Alpelisib; first compound 0.6325 µM)	relative viability (BMX-IN-1 + Alpelisib; first compound 2 µM)	relative viability (PAC-1 + Tozasertib; first compound 0.02 µM)	relative viability (PAC-1 + Tozasertib; first compound 0.06325 µM)	relative viability (PAC-1 + Tozasertib; first compound 0.2 µM)	relative viability (PAC-1 + Tozasertib; first compound 2 µM)	relative viability (PAC-1 + Dasatinib; first compound 0.02 µM)	relative viability (PAC-1 + Dasatinib; first compound 0.06325 µM)	relative viability (PAC-1 + Dasatinib; first compound 0.2 µM)	relative viability (PAC-1 + Dasatinib; first compound 2 µM)	relative viability (BMX-IN-1 + Pemetrexed; first compound 0.02 µM)	relative viability (BMX-IN-1 + Pemetrexed; first compound 0.2 µM)	relative viability (BMX-IN-1 + Pemetrexed; first compound 0.6325 µM)	relative viability (BMX-IN-1 + Pemetrexed; first compound 2 µM)	relative viability (BMX-IN-1 + Vorinostat; first compound 0.02 µM)	relative viability (BMX-IN-1 + Vorinostat; first compound 0.2 µM)	relative viability (BMX-IN-1 + Vorinostat; first compound 0.6325 µM)	relative viability (BMX-IN-1 + Vorinostat; first compound 2 µM)
LU99A	0.482	0.659	0.526	0.532	0.309	0.254	0.247	0.286	0.549	0.579	0.498	0.505	0.198	0.226	0.183	0.141	0.501	0.421	0.669	0.612
LXF-289	1.12	1.14	1.11	1.07	0.148	0.234	0.197	0.165	0.228	0.226	0.192	0.223	0.896	0.947	1.01	0.985	0.824	0.876	0.912	0.882
NCI-H23	0.617	0.793	0.603	0.692	0.323	0.384	0.366	0.383	0.734	0.887	0.826	0.948	0.693	1.04	0.797	0.622	0.654	0.728	0.602	0.564
NCI-H322M	0.882	0.825	0.757	0.772	0.496	0.537	0.467	0.477	0.226	0.264	0.259	0.256	0.596	0.689	0.65	0.586	0.872	0.983	1.01	0.876
NCI-H358	0.861	0.881	0.937	0.81	0.103	0.101	0.0952	0.109	0.179	0.164	0.158	0.135	0.167	0.182	0.176	0.175	0.816	0.811	0.788	0.652
NCI-H441	0.658	0.917	1.04	0.641	0.754	0.597	0.505	0.606	0.593	0.628	0.438	0.573	0.225	0.267	0.282	0.256	0.691	1.03	0.903	0.778
NCI-H460	0.827	0.752	0.566	0.568	0.356	0.453	0.394	0.542	0.524	0.477	0.464	0.521	0.0558	0.0711	0.0676	0.071	1.05		1.11	0.782
NCI-H520	1.26	0.922	0.873	0.753	0.461	0.468	0.407	0.393	0.172	0.213	0.19	0.225	0.762	0.853	0.686	0.762	0.8	0.718	0.666	0.696
NCI-H596	0.511	0.535	0.544	0.54	0.903	0.885	0.857	1.01	0.571	0.659	0.573	0.664	0.497	0.522	0.496	0.511	0.685	0.84	0.67	0.666
NCI-H647	1.25	1.32	1.36	0.974	0.336	0.403	0.256	0.242	0.203	0.172	0.185	0.164	0.162	0.169	0.15	0.142	0.709	0.725	0.663	0.495
NCI-H650	1.2	1.19	1.27	1.1	0.73	0.791	0.749	0.721	0.426	0.455	0.406	0.45	0.926	0.961	0.956	0.919	0.475	0.52	0.48	0.438
NCI-H661	0.675	0.889	0.758	0.692	0.364	0.332	0.348	0.331	0.992	1	0.89	0.892	1.02	0.96	0.961	0.899	0.878	0.877	0.857	0.743
NCI-H838	1.18	0.961	1.06	1.04	0.283	0.239	0.262	0.279	0.247	0.278	0.243	0.311	0.255	0.244	0.237	0.236	0.827	0.64	0.728	0.73
NCI-H1355	0.906	0.943	0.865	0.786	0.536	0.568	0.569	0.564	0.75	0.722	0.667	0.711	1.1	1.1	1.06	1.04	0.705	0.706	0.697	0.76
NCI-H1395	1.07	1.05	1.15	0.962	0.629	0.7	0.749	0.646	0.403	0.476	0.387	0.422	0.877	0.976	0.722	0.756	0.764	0.708	0.942	0.746

Source: the supplement of paper PMC10307832
